Reference: PubChem BioAssay (NCI)
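Values below derive from 48-hour exposures of cells grown in 96-well plates, with endpoints linearly interpolated between the two concentrations bracketing the appropriate inhibition level. Abbreviation: GI50, concentration required for 50% inhibition of growth. The concentration for full growth arrest is given as TGI.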

What was measured:
Test in all cases: inhibition of tumour cell growth, NCI panel, 48 h
OVCAR-5 ovarian = system: OVCAR-5 ovarian
SK-MEL-2 melanoma = system: SK-MEL-2 melanoma
HCC-2998 colon = system: HCC-2998 colon
786-0 renal = system: 786-0 renal
K-562 leukemia = system: K-562 leukemia
SR leukemia = system: SR leukemia
MALME-3M melanoma = system: MALME-3M melanoma
IGROV1 ovarian = system: IGROV1 ovarian
UACC-257 melanoma = system: UACC-257 melanoma
NCI/ADR-RES ovarian = system: NCI/ADR-RES ovarian
SNB-75 CNS = system: SNB-75 CNS
SF-295 CNS = system: SF-295 CNS
MOLT-4 leukemia = system: MOLT-4 leukemia
M14 melanoma = system: M14 melanoma
HCT-116 colon = system: HCT-116 colon
SK-MEL-28 melanoma = system: SK-MEL-28 melanoma
OVCAR-4 ovarian = system: OVCAR-4 ovarian
U251 CNS = system: U251 CNS
CAKI-1 renal = system: CAKI-1 renal
A498 renal = system: A498 renal
CCRF-CEM leukemia = system: CCRF-CEM leukemia
RPMI-8226 leukemia = system: RPMI-8226 leukemia
UO-31 renal = system: UO-31 renal
NCI-H23 lung = system: NCI-H23 lung
HS 578T breast = system: HS 578T breast
SNB-19 CNS = system: SNB-19 CNS
SF-268 CNS = system: SF-268 CNS
KM12 colon = system: KM12 colon
MDA-MB-435 = system: MDA-MB-435
SN12C renal = system: SN12C renal
MDA-MB-231 breast = system: MDA-MB-231 breast
OVCAR-8 ovarian = system: OVCAR-8 ovarian
LOX IMVI melanoma = system: LOX IMVI melanoma
OVCAR-3 ovarian = system: OVCAR-3 ovarian
SK-MEL-5 melanoma = system: SK-MEL-5 melanoma
ACHN renal = system: ACHN renal
MCF7 breast = system: MCF7 breast
DU-145 prostate = system: DU-145 prostate
HOP-92 NSCLC = system: HOP-92 NSCLC
RXF 393 renal = system: RXF 393 renal
BT-549 breast = system: BT-549 breast
PC-3 prostate = system: PC-3 prostate
SW-620 colon = system: SW-620 colon
SK-OV-3 ovarian = system: SK-OV-3 ovarian
T-47D breast = system: T-47D breast
TK-10 renal = system: TK-10 renal
NCI-H226 lung = system: NCI-H226 lung
A549 NSCLC = system: A549 NSCLC
NCI-H460 lung = system: NCI-H460 lung
HCT-15 colon = system: HCT-15 colon
UACC-62 melanoma = system: UACC-62 melanoma
SF-539 CNS = system: SF-539 CNS
HOP-62 NSCLC = system: HOP-62 NSCLC
HT29 colon = system: HT29 colon
EKVX NSCLC = system: EKVX NSCLC
NCI-H522 lung = system: NCI-H522 lung
COLO 205 colon = system: COLO 205 colon
HL-60(TB) leukemia = system: HL-60(TB) leukemia

## Oc1[nH]c2cc(Cl)ccc2c1/C=c1/ccc2c(c1)N=C(c1cc(F)cc(F)c1)N=2
OVCAR-5 ovarian
  GI50: 6.34 µM
  TGI: 21.5 µM
SK-MEL-2 melanoma
  GI50: 2.08 µM
  TGI: 7.03 µM
HCC-2998 colon
  GI50: 4.86 µM
  TGI: 17.2 µM
786-0 renal
  GI50: 3.31 µM
  TGI: 12.8 µM
K-562 leukemia
  GI50: 0.821 µM
  TGI: 12.1 µM
SR leukemia
  GI50: 2.22 µM
  TGI: 8.53 µM
MALME-3M melanoma
  GI50: 6.06 µM
  TGI: 27.4 µM
IGROV1 ovarian
  GI50: 3.29 µM
  TGI: 17.9 µM
UACC-257 melanoma
  GI50: 0.927 µM
  TGI: 19.2 µM
NCI/ADR-RES ovarian
  GI50: 2.03 µM
  TGI: 6.75 µM
SNB-75 CNS
  GI50: 1.6 µM
  TGI: 6.07 µM
SF-295 CNS
  GI50: 0.509 µM
  TGI: 2.84 µM
MOLT-4 leukemia
  GI50: 1.45 µM
  TGI: 5.72 µM
M14 melanoma
  GI50: 1.52 µM
  TGI: 3.69 µM
HCT-116 colon
  GI50: 1.17 µM
  TGI: 3.17 µM
SK-MEL-28 melanoma
  GI50: 2.78 µM
  TGI: 13.6 µM
OVCAR-4 ovarian
  GI50: 4.25 µM
  TGI: 16.1 µM
U251 CNS
  GI50: 1.06 µM
  TGI: 2.89 µM
CAKI-1 renal
  GI50: 1.73 µM
  TGI: 16.6 µM
A498 renal
  GI50: 1.24 µM
  TGI: 6.36 µM
CCRF-CEM leukemia
  GI50: 0.657 µM
  TGI: 3.47 µM
RPMI-8226 leukemia
  GI50: 2.38 µM
  TGI: 6.28 µM
UO-31 renal
  GI50: 3.68 µM
  TGI: 19 µM
NCI-H23 lung
  GI50: 2.47 µM
  TGI: 13 µM
HS 578T breast
  GI50: 1.55 µM
  TGI: 10.2 µM
SNB-19 CNS
  GI50: 6.22 µM
  TGI: 26.2 µM
SF-268 CNS
  GI50: 2.35 µM
  TGI: 11.7 µM
KM12 colon
  GI50: 2.2 µM
  TGI: 7.06 µM
MDA-MB-435
  GI50: 0.57 µM
  TGI: 2.38 µM
SN12C renal
  GI50: 3.89 µM
  TGI: 16.5 µM
MDA-MB-231 breast
  GI50: 2.78 µM
  TGI: 12.3 µM
OVCAR-8 ovarian
  GI50: 2.92 µM
  TGI: 10.3 µM
LOX IMVI melanoma
  GI50: 2.22 µM
  TGI: 15.2 µM
OVCAR-3 ovarian
  GI50: 1.41 µM
  TGI: 3.3 µM
SK-MEL-5 melanoma
  GI50: 1.68 µM
  TGI: 7.59 µM
ACHN renal
  GI50: 4.99 µM
  TGI: 19.9 µM
MCF7 breast
  GI50: 1.62 µM
  TGI: 11.3 µM
DU-145 prostate
  GI50: 1.98 µM
  TGI: 4.45 µM
HOP-92 NSCLC
  GI50: 0.741 µM
  TGI: 8.16 µM
RXF 393 renal
  GI50: 2.08 µM
  TGI: 6.27 µM
BT-549 breast
  GI50: 2.1 µM
  TGI: 10 µM
PC-3 prostate
  GI50: 2.12 µM
  TGI: 8.5 µM
SW-620 colon
  GI50: 1.1 µM
  TGI: 9.32 µM
SK-OV-3 ovarian
  GI50: 2.38 µM
  TGI: 7.95 µM
T-47D breast
  GI50: 4.27 µM
  TGI: 17.7 µM
TK-10 renal
  GI50: 5.53 µM
  TGI: 18.8 µM
NCI-H226 lung
  GI50: 5.78 µM
  TGI: 31 µM
A549 NSCLC
  GI50: 1.64 µM
  TGI: 5.44 µM
NCI-H460 lung
  GI50: 1.64 µM
  TGI: 6.77 µM
HCT-15 colon
  GI50: 3.37 µM
  TGI: 14.7 µM
UACC-62 melanoma
  GI50: 0.71 µM
  TGI: 12.4 µM
SF-539 CNS
  GI50: 2.04 µM
  TGI: 5.96 µM
HOP-62 NSCLC
  GI50: 1.35 µM
  TGI: 8.44 µM
HT29 colon
  GI50: 1.72 µM
  TGI: 5.94 µM
EKVX NSCLC
  GI50: 5.27 µM
  TGI: 32.4 µM
NCI-H522 lung
  GI50: 1.19 µM
  TGI: 3.38 µM
COLO 205 colon
  GI50: 2.24 µM
  TGI: 5.29 µM

## C=C1C(=O)O[C@H]2[C@H]3O[C@@H](C[C@@H]12)[C@](C)(O)CC[C@@H]1O[C@@]1(C)CCC[C@H]3C
OVCAR-5 ovarian
  TGI: > 100 µM
SK-MEL-2 melanoma
  TGI: 43.6 µM
HCC-2998 colon
  TGI: 55.5 µM
786-0 renal
  TGI: 33.9 µM
K-562 leukemia
  TGI: > 100 µM
SR leukemia
  TGI: > 100 µM
MALME-3M melanoma
  TGI: 31 µM
IGROV1 ovarian
  TGI: 46.2 µM
UACC-257 melanoma
  TGI: 89.6 µM
NCI/ADR-RES ovarian
  TGI: > 100 µM
SNB-75 CNS
  TGI: 96.1 µM
SF-295 CNS
  TGI: > 100 µM
MOLT-4 leukemia
  TGI: > 100 µM
M14 melanoma
  TGI: 29.3 µM
HCT-116 colon
  TGI: 27.8 µM
SK-MEL-28 melanoma
  TGI: > 100 µM
OVCAR-4 ovarian
  TGI: 51.8 µM
U251 CNS
  TGI: 84.5 µM
CAKI-1 renal
  TGI: 27.6 µM
A498 renal
  TGI: 73.2 µM
CCRF-CEM leukemia
  TGI: 58.2 µM
RPMI-8226 leukemia
  TGI: > 100 µM
UO-31 renal
  TGI: 69.3 µM
NCI-H23 lung
  TGI: 41.7 µM
HS 578T breast
  TGI: > 100 µM
SNB-19 CNS
  TGI: > 100 µM
SF-268 CNS
  TGI: 34.2 µM
KM12 colon
  TGI: 57.3 µM
MDA-MB-435
  TGI: 42.2 µM
SN12C renal
  TGI: 65.2 µM
MDA-MB-231 breast
  TGI: 65.8 µM
OVCAR-8 ovarian
  TGI: 47.5 µM
LOX IMVI melanoma
  TGI: 35.7 µM
OVCAR-3 ovarian
  TGI: 46.6 µM
SK-MEL-5 melanoma
  TGI: 33.5 µM
ACHN renal
  TGI: 31.4 µM
MCF7 breast
  TGI: 50.9 µM
DU-145 prostate
  TGI: 33.4 µM
HOP-92 NSCLC
  TGI: 36.4 µM
RXF 393 renal
  TGI: 26.9 µM
BT-549 breast
  TGI: 31.5 µM
PC-3 prostate
  TGI: > 100 µM
SW-620 colon
  TGI: 42.1 µM
SK-OV-3 ovarian
  TGI: > 100 µM
T-47D breast
  TGI: 82.4 µM
TK-10 renal
  TGI: 32.6 µM
NCI-H226 lung
  TGI: 60 µM
A549 NSCLC
  TGI: > 100 µM
NCI-H460 lung
  TGI: 89 µM
HCT-15 colon
  TGI: 37.9 µM
UACC-62 melanoma
  TGI: 33.2 µM
SF-539 CNS
  TGI: 53.7 µM
HOP-62 NSCLC
  TGI: > 100 µM
HT29 colon
  TGI: 68.6 µM
EKVX NSCLC
  TGI: 54.6 µM
NCI-H522 lung
  TGI: 34.6 µM
HL-60(TB) leukemia
  TGI: > 100 µM
COLO 205 colon
  TGI: 30 µM
